Tests used:
D2 receptor [1] = molecular target: T1, D2 receptor (Homo sapiens, UniProt P14416); assay: NIMH-PDSP receptor binding affinity, D2; conditions: Table 1; MTA = Missed 50% of threshold inhibition
5-HT2B receptor [2] = molecular target: T2, 5-HT2B receptor (Homo sapiens, UniProt P41595); conditions: Table 1; cited from earlier work
D4 receptor = molecular target: T3, D4 receptor (Homo sapiens, UniProt P21917); conditions: Table 1; cited from earlier work
T3 sequence (P21917 1-419): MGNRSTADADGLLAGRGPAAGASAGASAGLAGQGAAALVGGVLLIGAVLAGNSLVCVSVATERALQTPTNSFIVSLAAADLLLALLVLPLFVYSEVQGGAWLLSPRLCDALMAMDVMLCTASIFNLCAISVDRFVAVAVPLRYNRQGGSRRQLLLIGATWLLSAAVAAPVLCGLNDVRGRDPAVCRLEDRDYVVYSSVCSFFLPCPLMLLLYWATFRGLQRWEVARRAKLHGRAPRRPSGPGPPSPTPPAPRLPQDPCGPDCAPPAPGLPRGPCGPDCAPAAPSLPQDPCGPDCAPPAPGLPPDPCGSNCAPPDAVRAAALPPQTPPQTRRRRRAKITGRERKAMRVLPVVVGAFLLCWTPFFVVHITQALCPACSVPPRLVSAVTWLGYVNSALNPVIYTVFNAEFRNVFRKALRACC

5-HT7 receptor = 5-HT7 receptor (Homo sapiens, UniProt P34969); conditions: Table 1; cited from earlier work
Chain of 5-HT7 receptor (P34969 whole entry): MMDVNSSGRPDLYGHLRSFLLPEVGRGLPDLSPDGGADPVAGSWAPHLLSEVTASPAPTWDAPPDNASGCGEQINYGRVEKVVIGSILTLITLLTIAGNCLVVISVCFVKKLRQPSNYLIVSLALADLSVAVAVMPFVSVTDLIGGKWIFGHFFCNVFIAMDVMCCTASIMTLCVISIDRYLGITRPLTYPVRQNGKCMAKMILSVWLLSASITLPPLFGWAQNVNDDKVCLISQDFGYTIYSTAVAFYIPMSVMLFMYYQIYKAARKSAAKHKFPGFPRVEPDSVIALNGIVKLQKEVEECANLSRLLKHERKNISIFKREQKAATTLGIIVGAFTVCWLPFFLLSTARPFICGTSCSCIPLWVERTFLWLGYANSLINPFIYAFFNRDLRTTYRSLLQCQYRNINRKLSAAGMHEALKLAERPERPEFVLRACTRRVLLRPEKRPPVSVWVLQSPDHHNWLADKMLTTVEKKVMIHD

5-HT1A receptor = molecular target: T4, 5-HT1A receptor (Homo sapiens, UniProt P08908); conditions: Table 1, cited from earlier work
T4 sequence (P08908 1-422): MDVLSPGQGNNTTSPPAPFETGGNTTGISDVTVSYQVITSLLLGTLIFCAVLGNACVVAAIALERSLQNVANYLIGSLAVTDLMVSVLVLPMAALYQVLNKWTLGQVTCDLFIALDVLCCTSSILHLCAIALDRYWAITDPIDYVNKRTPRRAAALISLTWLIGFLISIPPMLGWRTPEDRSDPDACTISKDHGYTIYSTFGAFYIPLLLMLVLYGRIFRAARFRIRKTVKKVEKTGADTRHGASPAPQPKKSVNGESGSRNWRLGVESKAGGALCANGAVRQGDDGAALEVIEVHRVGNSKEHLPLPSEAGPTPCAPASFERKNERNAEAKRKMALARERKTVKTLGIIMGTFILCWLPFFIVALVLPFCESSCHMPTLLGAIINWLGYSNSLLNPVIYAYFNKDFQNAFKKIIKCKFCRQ

D2 receptor [3] = molecular target: T1, D2 receptor; conditions: Table 1; cited from earlier work
5-HT2C receptor = molecular target: T5, 5-HT2C receptor (Homo sapiens, UniProt P28335); conditions: Table 1; cited from earlier work
T5 sequence (P28335 33-458): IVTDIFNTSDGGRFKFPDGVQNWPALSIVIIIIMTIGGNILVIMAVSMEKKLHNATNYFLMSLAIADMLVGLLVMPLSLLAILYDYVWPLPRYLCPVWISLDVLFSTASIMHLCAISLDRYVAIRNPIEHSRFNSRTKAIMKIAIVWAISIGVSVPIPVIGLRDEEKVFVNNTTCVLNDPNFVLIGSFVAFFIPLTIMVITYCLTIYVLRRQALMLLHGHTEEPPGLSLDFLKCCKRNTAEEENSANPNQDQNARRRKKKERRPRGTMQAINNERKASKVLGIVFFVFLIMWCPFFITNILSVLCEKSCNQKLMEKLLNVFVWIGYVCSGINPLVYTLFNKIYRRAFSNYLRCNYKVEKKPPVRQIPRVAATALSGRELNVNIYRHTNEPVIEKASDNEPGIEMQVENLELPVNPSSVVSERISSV

5-HT2A receptor = 5-HT2A receptor (Homo sapiens, UniProt P28223); conditions: Table 1; cited from earlier work
Chain of 5-HT2A receptor (P28223 whole entry): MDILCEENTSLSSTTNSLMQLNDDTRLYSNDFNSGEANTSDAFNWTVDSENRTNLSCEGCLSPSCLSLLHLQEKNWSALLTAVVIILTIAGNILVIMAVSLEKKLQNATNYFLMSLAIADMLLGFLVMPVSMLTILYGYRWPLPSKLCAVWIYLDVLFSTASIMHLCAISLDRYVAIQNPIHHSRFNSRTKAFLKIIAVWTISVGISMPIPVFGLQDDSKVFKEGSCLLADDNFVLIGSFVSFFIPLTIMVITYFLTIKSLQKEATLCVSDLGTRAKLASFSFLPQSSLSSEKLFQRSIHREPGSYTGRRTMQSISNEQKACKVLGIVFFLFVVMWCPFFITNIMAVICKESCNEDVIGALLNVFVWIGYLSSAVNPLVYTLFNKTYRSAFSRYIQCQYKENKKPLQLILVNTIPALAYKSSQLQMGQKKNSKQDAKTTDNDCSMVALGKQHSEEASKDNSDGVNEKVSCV

H1 receptor = H1 receptor (Homo sapiens, UniProt P35367); conditions: Table 1; cited from earlier work
Chain of H1 receptor (P35367 whole entry): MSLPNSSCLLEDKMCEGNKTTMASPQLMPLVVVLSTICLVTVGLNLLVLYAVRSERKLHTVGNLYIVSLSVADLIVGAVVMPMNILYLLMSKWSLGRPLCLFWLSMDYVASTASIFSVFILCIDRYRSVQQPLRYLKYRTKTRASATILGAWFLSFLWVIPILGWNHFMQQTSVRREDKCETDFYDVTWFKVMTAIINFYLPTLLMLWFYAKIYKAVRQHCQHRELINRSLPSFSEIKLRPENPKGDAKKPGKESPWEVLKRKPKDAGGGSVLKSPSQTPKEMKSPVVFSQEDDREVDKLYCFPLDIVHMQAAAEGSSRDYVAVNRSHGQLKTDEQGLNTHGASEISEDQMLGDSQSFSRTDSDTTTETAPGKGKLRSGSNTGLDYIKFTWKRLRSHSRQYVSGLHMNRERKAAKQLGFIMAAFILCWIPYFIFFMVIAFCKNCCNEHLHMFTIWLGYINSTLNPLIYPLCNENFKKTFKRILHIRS

5-HT2B receptor [4] = molecular target: T2, 5-HT2B receptor; assay: NIMH-PDSP receptor binding affinity, 5-HT2B; conditions: Table 1; MTA = Missed 50% of threshold inhibition

T2 sequence (P41595 whole entry): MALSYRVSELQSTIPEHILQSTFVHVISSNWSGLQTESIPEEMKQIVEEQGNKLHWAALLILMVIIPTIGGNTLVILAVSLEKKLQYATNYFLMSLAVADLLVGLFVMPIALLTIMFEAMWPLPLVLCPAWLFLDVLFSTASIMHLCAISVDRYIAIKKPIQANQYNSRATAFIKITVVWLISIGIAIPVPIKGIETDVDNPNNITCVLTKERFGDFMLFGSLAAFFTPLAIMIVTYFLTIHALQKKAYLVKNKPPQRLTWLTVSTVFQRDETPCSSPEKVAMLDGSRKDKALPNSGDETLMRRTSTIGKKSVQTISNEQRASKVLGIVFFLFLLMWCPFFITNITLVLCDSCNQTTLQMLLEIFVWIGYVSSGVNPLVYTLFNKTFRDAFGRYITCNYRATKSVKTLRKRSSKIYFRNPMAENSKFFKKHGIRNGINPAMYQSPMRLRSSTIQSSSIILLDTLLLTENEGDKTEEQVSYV
T1 sequence (P14416 whole entry): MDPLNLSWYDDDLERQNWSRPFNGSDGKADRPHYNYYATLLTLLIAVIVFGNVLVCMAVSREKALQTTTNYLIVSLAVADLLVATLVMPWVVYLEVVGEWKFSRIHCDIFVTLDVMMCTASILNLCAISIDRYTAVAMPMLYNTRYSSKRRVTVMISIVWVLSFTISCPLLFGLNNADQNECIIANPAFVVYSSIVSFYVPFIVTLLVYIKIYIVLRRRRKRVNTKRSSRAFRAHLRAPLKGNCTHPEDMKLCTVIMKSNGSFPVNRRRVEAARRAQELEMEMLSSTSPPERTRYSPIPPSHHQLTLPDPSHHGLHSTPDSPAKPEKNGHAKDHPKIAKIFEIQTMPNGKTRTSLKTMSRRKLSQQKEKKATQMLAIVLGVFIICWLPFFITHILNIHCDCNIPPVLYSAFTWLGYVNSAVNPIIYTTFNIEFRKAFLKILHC

For Br.c1ccc2c(c1)CCN(CCCc1nc3ccccc3s1)C2 [Compound 1b, 2-(3-(3,4-Dihydroisoquinolin-2(1H)-yl)propyl)benzo[d]thiazole hydrobromide], the “Ki (nM) D2” value (D2 receptor [1]) was “MTA”.
For c1ccc2c(c1)CCN(CCCCc1nc3ccccc3s1)C2 [Compound 1a, 2-(4-(3,4-Dihydroisoquinolin-2(1H)-yl)butyl)benzo[d]thiazole], the “pKi±SEM 5-HT2B” value (5-HT2B receptor [2]) is given as 7.74±0.05, the “pKi±SEM D4” value (D4 receptor) is given as 7.17±0.05 and the “pKi±SEM 5-HT7” value (5-HT7 receptor) is given as 7.66±0.06. For the same compound, the “pKi±SEM 5-HT1A” value (5-HT1A receptor) was 8±0.03, the Ki (5-HT1A receptor; read-out: Ki (nM) 5-HT1A, MTA = Missed 50% of threshold inhibition) was 10 nM and the “pKi±SEM D2” value (D2 receptor [3]) was 6.78±0.09. For the same compound, the “pKi±SEM 5-HT2C” value (5-HT2C receptor) was 6.04±0.04, the “pKi±SEM 5-HT2A” value (5-HT2A receptor) was 5.77±0.06 and the “pKi±SEM H1” value (H1 receptor) was 6.23±0.08.
With Cl.Cl.c1ccc2c(c1)CCN(CCCc1nc3ccccc3[nH]1)C2 [Compound 1d, 2-(3-(1H-benzo[d]imidazol-2-yl)propyl)-1,2,3,4-tetrahydroisoquinoline] the “Ki (nM) 5-HT2B” value (5-HT2B receptor [4]) was “MTA”.

Source: publication PMC5079764 (Bioorganic & medicinal chemistry, 2016)
